Experimental data reported in patent publication US8455497B2, “Inhibitors of aspartyl protease” (Vertex Pharmaceuticals Incorporated, priority 1999, dated 2013).
Read-outs that look alike come from different tables or passages of the source.

Tests used:
[1] = tested on: HIV-1 (strain IIIB); assay: Antiviral activity assay in MT4 cells (propidium iodide based); assay type: cell-based; settings: wild type HIV-1 virus, MT4 cells, read-out: Wildtype virus - IC50
Summary of the method: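 MT4 cells infected with HIV-1 IIIB (MOI 100×TCID50, 1 hr, 37°C), diluted 6-fold into wells with serially diluted compound, incubated 5 days. Cells lysed with Nonidet-40; DNA content per well estimated by propidium iodide staining as the viability read-out, with mock-infected controls.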

[2] = tested on: EP13 multi protease inhibitor resistant virus; assay: Anti-viral activity against resistant virus EP13 in MT4 cells; assay type: cell-based, HIV-1
Summary of the method: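 MT4 cells infected for 1 h at 37 °C, MOI 100×TCID50, then diluted 6-fold onto pre-diluted compound and cultured 5 days (5% CO2). Viable-cell DNA content estimated by propidium iodide. EP13 carries protease mutations M46I, L63P, A71V, V82F/L, I84V, no RT mutations.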

[3] = tested on: D545701-14 multi protease inhibitor resistant virus; assay: Anti-viral activity against resistant virus D545701-14 in MT4 cells; assay type: cell-based, HIV-1
[4] = Human immunodeficiency virus 1, IIIB
[5] = Human immunodeficiency virus 1, MT4, read-out: EP13 mutant IC50, EP13 multi protease inhibitor resistant virus, MT4 cells
[6] = Human immunodeficiency virus 1, MT4, read-out: D545701-14 mutant - IC50, D545701-14 multi protease inhibitor resistant virus, MT4 cells

`CC(C)CN(C[C@@H](O)[C@H](Cc1ccc(OCCCCN(C)C)cc1)NC(=O)O[C@H]1CO[C@H]2OCC[C@H]21)S(=O)(=O)c1ccc2c(c1)OCO2` [Compound 275, (3R,3aS,6aR)-hexahydrofuro[2,3-b]furan-3-yl (1S,2R)-3-[(1,3-benzodioxol-5-ylsulfonyl)(isobutyl)amino]-1-{4-[4-(dimethylamino)butoxy]benzyl}-2-hydroxypropylcarbamate] gave an IC50 [1, 4] of 10 to 100 nM, an IC50 [2, 5] of 1 to 10 nM and an IC50 [3, 6] of 10 to 100 nM.

With `CC(C)CN(C[C@@H](O)[C@H](Cc1ccc(OCCCN2CCSC2)cc1)NC(=O)O[C@H]1CO[C@H]2OCC[C@H]21)S(=O)(=O)c1ccc2c(c1)OCO2` [Compound 277, (3R,3aS,6aR)-hexahydrofuro[2,3-b]furan-3-yl (1S,2R)-3-[(1,3-benzodioxol-5-ylsulfonyl)(isobutyl)amino]-2-hydroxy-1-{4-[3-(1,3-thiazolidin-3-yl)propoxy]benzyl}propylcarbamate] the IC50 [1, 4] was 1 to 10 nM, the IC50 [2, 5] was 1 to 10 nM and the IC50 [3, 6] was 1 to 10 nM.

`CC(C)CN(C[C@@H](O)[C@H](Cc1ccc(OCCCn2ccnc2)cc1)NC(=O)O[C@H]1CO[C@H]2OCC[C@H]21)S(=O)(=O)c1ccc2c(c1)OCO2` [Compound 278, (3R,3aS,6aR)-hexahydrofuro[2,3-b]furan-3-yl (1S,2R)-3-[(1,3-benzodioxol-5-ylsulfonyl)(isobutyl)amino]-2-hydroxy-1-{4-[3-(1H-imidazol-1-yl)propoxy]benzyl}propylcarbamate] showed an IC50 [1, 4] of 10 to 100 nM, an IC50 [2, 5] of 1 to 10 nM and an IC50 [3, 6] of 1 to 10 nM.

`CC(C)CN(C[C@@H](O)[C@H](Cc1ccc(OCCCN2CCCC2)cc1)NC(=O)O[C@H]1CO[C@H]2OCC[C@H]21)S(=O)(=O)c1ccc2c(c1)OCO2` [Compound 280, (3R,3aS,6aR)-hexahydrofuro[2,3-b]furan-3-yl (1S,2R)-3-[(1,3-benzodioxol-5-ylsulfonyl)(isobutyl)amino]-2-hydroxy-1-{4-[3-(1-pyrrolidinyl)propoxy]-3-benzyl}propylcarbamate] was tested, and the IC50 [1] was 10 to 100 nM, the IC50 ([2]; EP13 multi protease inhibitor resistant virus, MT4 cells, read-out: EP13 mutant IC50) was 1 to 10 nM and the IC50 ([3]; D545701-14 multi protease inhibitor resistant virus, MT4 cells, read-out: D545701-14 mutant - IC50) was 1 to 10 nM.

`CC(C)CN(C[C@@H](O)[C@H](Cc1ccc(OCCCN2CCN(C)CC2)cc1)NC(=O)O[C@H]1CO[C@H]2OCC[C@H]21)S(=O)(=O)c1ccc2c(c1)OCO2` [Compound 282, (3R,3aS,6aR)-hexahydrofuro[2,3-b]furan-3-yl (1S,2R)-3-[(1,3-benzodioxol-5-ylsulfonyl)(isobutyl)amino]-2-hydroxy-1-{4-[3-(4-methyl-1-piperazinyl)propoxy]benzyl}propylcarbamate] gave an IC50 [1, 4] of 10 to 100 nM, an IC50 [2, 5] of 1 to 10 nM and an IC50 [3, 6] of 10 to 100 nM.

`COCCNCCCOc1ccc(C[C@H](NC(=O)O[C@H]2CO[C@H]3OCC[C@H]32)[C@H](O)CN(CC(C)C)S(=O)(=O)c2ccc3c(c2)OCO3)cc1` [Compound 283, (3R,3aS,6aR)-hexahydrofuro[2,3-b]furan-3-yl (1S,2R)-3-[(1,3-benzodioxol-5-ylsulfonyl)(isobutyl)amino]-2-hydroxy-1-(4-{3-[(2-methoxyethyl)amino]propoxy}benzyl) propylcarbamate] was tested, and the IC50 [1, 4] was 10 to 100 nM, the IC50 [2, 5] was 1 to 10 nM and the IC50 [3, 6] was 10 to 100 nM.

`CC(C)CN(C[C@@H](O)[C@H](Cc1ccc(OCCCn2cccn2)cc1)NC(=O)O[C@H]1CO[C@H]2OCC[C@H]21)S(=O)(=O)c1ccc2c(c1)OCO2` [Compound 284, (3R,3aS,6aR)-hexahydrofuro[2,3-b]furan-3-yl (1S,2R)-3-[(1,3-benzodioxol-5-ylsulfonyl)(isobutyl)amino]-2-hydroxy-1-{4-[3-(1H-pyrazol-1-yl)propoxy]benzyl}propylcarbamate] was tested, and the IC50 [1, 4] was 1 to 10 nM, the IC50 [2, 5] was 1 to 10 nM and the IC50 [3, 6] was 1 to 10 nM.

In the case of `CCCCNC(=O)CCCOc1ccc(C[C@H](NC(=O)O[C@H]2CO[C@H]3OCC[C@H]32)[C@H](O)CN(CC(C)C)S(=O)(=O)c2ccc3c(c2)OCO3)cc1` [Compound 288, (3R,3aS,6aR)-hexahydrofuro[2,3-b]furan-3-yl (1S,2R)-3-[(1,3-benzodioxol-5-ylsulfonyl)(isobutyl)amino]-1-{4-[4-(butylamino)-4-oxobutoxy]benzyl}-2-hydroxypropylcarbamate], the IC50 [1, 4] is reported as 1 to 10 nM, the IC50 [2, 5] is reported as 1 to 10 nM and the IC50 [3, 6] is reported as 1 to 10 nM.

Work on `CC(C)CN(C[C@@H](O)[C@H](Cc1ccc(OCc2cccc(C#N)c2)cc1)NC(=O)O[C@H]1CO[C@H]2OCC[C@H]21)S(=O)(=O)c1cccc(N)c1` [Compound 289] yielded an IC50 [1, 4] of 1 to 10 nM, an IC50 [2, 5] of 1 to 10 nM and an IC50 [3, 6] of 1 to 10 nM.

`CC(C)CN(C[C@@H](O)[C@H](Cc1ccc(OCCCCN)cc1)NC(=O)O[C@H]1CO[C@H]2OCC[C@H]21)S(=O)(=O)c1cccc(N)c1` [Compound 292] showed an IC50 [1, 4] of 10 to 100 nM, an IC50 [2, 5] of 10 to 100 nM and an IC50 [3, 6] of 10 to 100 nM.

Compound `CC(C)CN(C[C@@H](O)[C@H](Cc1ccc(OCc2ccccn2)cc1)NC(=O)O[C@H]1CO[C@H]2OCCC21)S(=O)(=O)c1cccc(N)c1` (stereo partly drawn) [Compound 293] has an IC50 [1, 4] of 1 to 10 nM, an IC50 [2, 5] of 1 to 10 nM and an IC50 [3, 6] of 1 to 10 nM.

`CC(=O)Oc1ccc(S(=O)(=O)N(CC(C)C)C[C@@H](O)[C@H](Cc2ccc(OCc3ccccn3)cc2)NC(=O)O[C@H]2COC3OCC[C@H]32)cc1C` (stereo partly drawn) [Compound 294] gave an IC50 [1, 4] of 1 to 10 nM, an IC50 [2, 5] of 1 to 10 nM and an IC50 [3, 6] of 1 to 10 nM.

`Cc1cc(S(=O)(=O)N(CC(C)C)C[C@@H](O)[C@H](Cc2ccc(OCc3ccccn3)cc2)NC(=O)O[C@H]2CO[C@H]3OCC[C@H]32)ccc1O` [Compound 295] showed an IC50 [1, 4] of 1 to 10 nM, an IC50 [2, 5] of 1 to 10 nM and an IC50 [3, 6] of 1 to 10 nM.

Work on `CC(C)CN(C[C@@H](O)[C@H](Cc1ccc(OCc2ccccn2)cc1)NC(=O)O[C@@H]1CO[C@H]2OCC[C@H]21)S(=O)(=O)c1ccc(N)cc1` [Compound 299, (3S,3aS,6aR)-hexahydrofuro[2,3-b]furan-3-yl (1S,2R)-3-[[(4-aminophenyl)sulfonyl]-(isobutyl)amino]-2-hydroxy-1-[4-(2-pyridinylmethoxy)benzyl]propylcarbamate] yielded an IC50 [1, 4] of 1 to 10 nM, an IC50 [2, 5] of 1 to 10 nM and an IC50 [3, 6] of 1 to 10 nM.

`Cc1nc(COc2ccc(C[C@H](NC(=O)O[C@@H]3CO[C@H]4OCC[C@H]43)[C@H](O)CN(CC(C)C)S(=O)(=O)c3ccc(N)cc3)cc2)cs1` [Compound 300, (3S,3aS,6aR)-hexahydrofuro[2,3-b]furan-3-yl (1S,2R)-3-[[(4-aminophenyl)sulfonyl]-(isobutyl)amino]-2-hydroxy-1-{4-[(2-methyl-1,3-thiazol-4-yl)methoxy]benzyl}propylcarbamate] gave an IC50 [1, 4] of 1 to 10 nM, an IC50 [2, 5] of 1 to 10 nM and an IC50 [3, 6] of 1 to 10 nM.

For `CC(C)CN(C[C@@H](O)[C@H](Cc1ccc(OCc2cccc(C#N)c2)cc1)NC(=O)O[C@@H]1CO[C@H]2OCC[C@H]21)S(=O)(=O)c1ccc(N)cc1` [Compound 301, (3S,3aS,6aR)-hexahydrofuro[2,3-b]furan-3-yl (1S,2R)-3-[[(4-aminophenyl)sulfonyl](isobutyl)amino]-1-{4-[(3-cyanobenzyl)oxy]benzyl}-2-hydroxypropylcarbamate], the IC50 [1, 4] was 1 to 10 nM, the IC50 [2, 5] was 1 to 10 nM and the IC50 [3, 6] was 1 to 10 nM.
